Data on 3 compounds can be found in publication PMC7315563, “Bioactive fluorenes. Part III: 2,7-dichloro-9H-fluorene-based thiazolidinone and azetidinone analogues as anticancer and antimicrobial against multidrug resistant strains agents” (BMC Chemistry, 2020).

SMILES strings stand for the structures. Values after ≈ are worked out from the molar mass of the structure shown.

Usually IC50 stands for the midpoint of a concentration-inhibition curve. A higher IC50 goes with lower potency. One may read the zone of inhibition as the size of the clear area around the sample on an inoculated plate. By MIC is commonly meant the smallest concentration in the dilution series that meets the test's criterion for growth inhibition. Lower therefore signals inhibition by little substance.

Common to all, as to assay type: cell-based
The test system of test [1] is WI-38 human normal fibroblast cells. Put plainly: cell viability assay (MTT). The note with it: 24 h; for viability at 31.25 µg/mL: read-out: Validity (%) for sample concentrations (µg/mL) 31.25; for viability at 62.5 µg/mL: 62.50 µg/mL, read-out: Validity (%) for sample concentrations (µg/mL) 62.50; for viability at 125 µg/mL: read-out: Validity (%) for sample concentrations (µg/mL) 125; for viability at 250 µg/mL: read-out: Validity (%) for sample concentrations (µg/mL) 250; for viability at 500 µg/mL: read-out: Validity (%) for sample concentrations (µg/mL) 500. The procedure, abridged:
(§1)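 24 h treatment, eight concentrations from 0 to 500 µg/mL, cells plated one day earlier at 5000/well in RPMI-1640 + 10% FBS. MTT endpoint, OD 570 nm.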

Test [2] has as its system MDA-MB-231 human breast cancer cells. Put plainly: cell viability assay (MTT). The note with it: 24 h; for viability at 1 µg/mL: read-out: Validity (%) for sample concentrations (µg/mL) 1; for viability at 10 µg/mL: read-out: Validity (%) for sample concentrations (µg/mL) 10; for viability at 31.25 µg/mL: read-out: Validity (%) for sample concentrations (µg/mL) 31.25; for viability at 62.5 µg/mL: read-out: Validity (%) for sample concentrations (µg/mL) 62.5; for viability at 125 µg/mL: read-out: Validity (%) for sample concentrations (µg/mL) 125; for viability at 250 µg/mL: read-out: Validity (%) for sample concentrations (µg/mL) 250; for viability at 500 µg/mL: read-out: Validity (%) for sample concentrations (µg/mL) 500. A digest of the protocol: as §1

Test [3] relates to Escherichia coli (E. coli), multidrug resistant clinical isolate. Put plainly: agar well diffusion assay. The note with it: 24 h, 500 µg/mL of tested compound. The procedure, abridged:
(§2)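 Multidrug-resistant clinical isolates swabbed on Mueller–Hinton agar at about 1–5 × 10^5 CFU/mL; 0.5 cm wells received 50 μL compound at 500 μg/mL in 1% DMSO. Incubation 24 h, 37 °C for bacteria and C. albicans, 25 °C for Aspergillus; inhibition zone diameter measured in mm.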
A general note: A growth-free zone around the sample is the usual read-out of agar diffusion tests.

The next test has as its system E. coli. Put plainly: MIC by broth microdilution method (resazurin end point). The note with it: Escherichia coli, 24 h at 37 °C. A digest of the protocol: (§3)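 Twofold dilutions of fluorene derivatives (500–7.8 μg/mL) in Mueller–Hinton broth, inoculum from 0.5 McFarland suspension per CLSI 2012. Resazurin added, 1–4 h at 37 °C; MIC is lowest concentration preventing blue-to-pink change.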
In general terms: Dilution methods test growth across graded concentrations, often in twofold steps.

The next test concerns K. pneumoniae. Described as above. The note with it: Klebsiella pneumoniae, 24 h at 37 °C. The procedure, abridged: as §3
Test [4] deals with methicillin-resistant Staphylococcus aureus (MRSA). As to the kind of experiment: agar well diffusion assay. The note with it: 500 µg/mL of tested compound, 24 h. The procedure, abridged: as §2
Test [5] concerns Streptococcus pneumoniae (S. pneumoniae), multidrug resistant clinical isolate. Put plainly: agar well diffusion assay. The note with it: S. pneumoniae; 500 µg/mL of tested compound; 24 h. A digest of the protocol: as §2
For a further test, the system named is P. aeruginosa. As to the kind of experiment: MIC by broth microdilution method (resazurin end point). The note with it: Pseudomonas aeruginosa, 24 h at 37 °C. The procedure, abridged: as §3

For the compound `O=C1C(Cl)C(c2ccc(Cl)cc2)N1c1nc(-c2cc(Cl)cc3c2-c2ccc(Cl)cc2C3)cs1` (centres unmarked) [6c, 3-Chloro-4-(4-chlorophenyl)-1-(4-(2,7-dichloro-9H-fluoren-4-yl)thiazol-2-yl)azetidin-2-one], in test [1], the viability at 31.25 µg/mL came to 94.5%, the viability at 62.5 µg/mL was found to be 65.9%, the viability at 125 µg/mL worked out at 63.4% and the viability at 250 µg/mL turned out to be 59.5%. In test [1], the viability at 500 µg/mL amounted to 55.5% and the IC50 is more than 500 µg/mL. In addition, in test [2], the viability at 1 µg/mL was found to be 92.8%, the viability at 10 µg/mL was determined as 77.8%, the viability at 31.25 µg/mL is 63.1% and the viability at 62.5 µg/mL worked out at 53.1%. For the same compound, in test [2], the viability at 125 µg/mL worked out at 46%, the viability at 250 µg/mL was determined as 29.4%, the viability at 500 µg/mL was 24.8% and the IC50 was 104 µg/mL (≈ 195 µM). The compound further returned a zone of inhibition at 500 µg/mL in test [3] of 15 mm. The MIC in the test with E. coli turned out to be 62.5 µg/mL (≈ 117 µM). Further, in the test on K. pneumoniae, it took 125 µg/mL (≈ 235 µM) to inhibit growth (MIC).

`O=C1C(Cl)C(c2ccc(Br)cc2)N1c1nc(-c2cc(Cl)cc3c2-c2ccc(Cl)cc2C3)cs1` (centres unmarked) [6d, 4-(4-Bromophenyl)-3-chloro-1-(4-(2,7-dichloro-9H-fluoren-4-yl)thiazol-2-yl)azetidin-2-one]: in test [1], the viability at 31.25 µg/mL stood at 92%, the viability at 62.5 µg/mL worked out at 88.1%, the viability at 125 µg/mL stood at 78.6% and the viability at 250 µg/mL was found to be 67.5%. In test [1], the viability at 500 µg/mL came to 67.7% and the IC50 is more than 500 µg/mL. In test [2], the viability at 1 µg/mL came to 93.3%, the viability at 10 µg/mL was determined as 89.1%, the viability at 31.25 µg/mL turned out to be 75.8% and the viability at 62.5 µg/mL was 63.3%. In addition, in test [2], the viability at 125 µg/mL was 53.1%, the viability at 250 µg/mL was determined as 27.7%, the viability at 500 µg/mL is 24% and the half-inhibitory concentration (IC50) was determined as 169 µg/mL (≈ 293 µM). The “Mean zone of inhibition” value in test [4] is “no activity”. The “Mean zone of inhibition” value in test [5] was “no activity”.

Consider `O=C1C(Cl)C(c2cccs2)N1c1nc(-c2cc(Cl)cc3c2-c2ccc(Cl)cc2C3)cs1` (centres unmarked) [6k, 3-Chloro-1-(4-(2,7-dichloro-9H-fluoren-4-yl)thiazol-2-yl)-4-(thiophen-2-yl)azetidin-2-one], for which, in test [1], the viability at 31.25 µg/mL is 77.9%, the viability at 62.5 µg/mL is 64%, the viability at 125 µg/mL was determined as 61.3% and the viability at 250 µg/mL came out at 60.3%. Further, in test [1], the viability at 500 µg/mL worked out at 58.3% and the IC50 is more than 500 µg/mL. Also, in test [2], the viability at 1 µg/mL is 96.4%, the viability at 10 µg/mL was 90.7%, the viability at 31.25 µg/mL was 78.6% and the viability at 62.5 µg/mL came out at 69.6%. In test [2], the viability at 125 µg/mL turned out to be 51%, the viability at 250 µg/mL came out at 33.3%, the viability at 500 µg/mL was 19.1% and the IC50 is 131 µg/mL (≈ 260 µM). This compound also gave a zone of inhibition at 500 µg/mL in test [3] of 14 mm. For the same compound, the MIC against P. aeruginosa was 125 µg/mL (≈ 248 µM). In the test on E. coli, this compound had an MIC of 31.2 µg/mL (≈ 62 µM).
